Data taken from ChEMBL document CHEMBL6134901 (J Med Chem, 2025).
In brackets after ≈: the same amount, converted by molar mass.

Legend:
Assay type in all cases: functional
Clostridioides difficile [1] = test: Antibacterial activity against Clostridium difficile ATTC43255 assessed as spore germination inhibition at 45 uM incubated for 60 mins by spectrometry relative to control; settings: ATTC43255, 1 h
Staphylococcus aureus [2] = test: Antibacterial activity against Staphylococcus aureus NRS100
[3] = system: Staphylococcus haemolyticus; test: Antibacterial activity against Staphylococcus haemolyticus ATCC 29970
Staphylococcus aureus [4] = test: Antibacterial activity against vancomycin-resistant Staphylococcus aureus VRS1 clinical isolate
Enterococcus faecium [5] = test: Antibacterial activity against vancomycin-resistant Enterococcus faecium 106 clinical isolate
Escherichia coli = test: Antibacterial activity against Escherichia coli ATCC 25922
Enterococcus faecium [6] = test: Antibacterial activity against vancomycin-susceptible Enterococcus faecium 119-39A
Eubacterium sp. = test: Antibacterial activity against Eubacterium sp. HM-178
Staphylococcus aureus [7] = test: Antibacterial activity against Staphylococcus aureus NRS119
Klebsiella aerogenes = test: Antibacterial activity against Enterobacter aerogenes ATCC 35029
Bacillus cereus = test: Antibacterial activity against Bacillus cereus ATCC 13061
Clostridioides difficile [8] = test: Antibacterial activity against fidaxomicin-resistant Clostridium difficile RMA23691 clinical isolate
Klebsiella pneumoniae = test: Antibacterial activity against Klebsiella pneumoniae ATCC 700603
Bifidobacterium longum = test: Antibacterial activity against Bifidobacterium longum HM-846
[9] = system: Staphylococcus epidermidis; test: Antibacterial activity against Staphylococcus epidermidis ATCC 35547
Lactobacillus gasseri = test: Antibacterial activity against Lactobacillus gasseri HM-644
[10] = system: Limosilactobacillus reuteri; test: Antibacterial activity against vancomycin-susceptible Lactobacillus reuteri HM-102 clinical isolate
Fusobacterium nucleatum = test: Antibacterial activity against methicillin/oxacillin/tetracycline-resistant mecA-positive Fusobacterium nucleatum HM-992
Pseudomonas aeruginosa = test: Antibacterial activity against Pseudomonas aeruginosa ATCC 27853
Enterococcus faecalis = test: Antibacterial activity against Enterococcus faecalis ATCC 29212
Bacteroides fragilis = test: Antibacterial activity against Bacteroides fragilis HM-709
Veillonella = test: Antibacterial activity against Veillonella sp. HM-49
Clostridioides difficile [11] = test: Antibacterial activity against Clostridium difficile RMA23828
Acinetobacter baumannii = test: Antibacterial activity against Acinetobacter baumannii ATCC 17961
Clostridioides difficile [12] = test: Antibacterial activity against metronidazole-resistant Clostridium difficile […] clinical isolate
Clostridioides difficile [13] = test: Antibacterial activity against Clostridium difficile RMA26675
Staphylococcus aureus [14] = test: Antibacterial activity against Staphylococcus aureus ATCC 29213

With `Nc1cncc(-c2nc(-c3ccc(Oc4ccc(C(F)(F)F)cc4)cc3)no2)c1` the inhibition at 45 µM (Clostridioides difficile [1]) was less than 10%.
`CC(C)(C)Oc1ccc(-c2noc(-c3ccc(O)cc3)n2)cc1` was tested, and the inhibition at 45 µM (Clostridioides difficile [1]) was less than 10%.
`FC(F)(F)c1ccc(Oc2ccc(-c3noc(-c4ccc(Br)cc4)n3)cc2)cc1` was tested, and the inhibition at 45 µM (Clostridioides difficile [1]) was less than 10%.
Work on `CC(C)(C)OC(=O)NCc1ccc(-c2nc(-c3ccc(Oc4ccc(C(F)(F)F)cc4)cc3)no2)cc1` yielded an inhibition at 45 µM (Clostridioides difficile [1]) of less than 10%.
In the case of `CCc1c(Cl)c(O)c(Cl)c(O)c1C(=O)O[C@H]1[C@H](O)[C@H](OC)[C@H](OC/C2=C\C=C\C[C@H](O)/C(C)=C/[C@H](CC)[C@@H](O[C@@H]3OC(C)(C)[C@@H](OC(=O)C(C)C)[C@H](O)[C@@H]3O)/C(C)=C/C(C)=C/C[C@@H]([C@@H](C)O)OC2=O)O[C@@H]1C` [FIDAXOMICIN], the MIC (Staphylococcus aureus [2]) is reported as 16 µg/mL (≈ 15.1 µM), the MIC [3] is reported as 16 µg/mL (≈ 15.1 µM) and the MIC (Staphylococcus aureus [4]) is reported as 64 µg/mL (≈ 60.5 µM). For the same compound, the MIC (Enterococcus faecium [5]) was greater than 16 µg/mL, the MIC (Escherichia coli) was greater than 128 µg/mL and the MIC (Enterococcus faecium [6]) was greater than 16 µg/mL. It also gave an MIC (Eubacterium sp.) of 16 µg/mL (≈ 15.1 µM), an MIC (Staphylococcus aureus [7]) of 2 µg/mL (≈ 1.89 µM) and an MIC (Klebsiella aerogenes) greater than 128 µg/mL. The MIC (Bacillus cereus) was 16 µg/mL (≈ 15.1 µM), the MIC (Clostridioides difficile [8]) was 4 µg/mL (≈ 3.78 µM) and the MIC (Klebsiella pneumoniae) was greater than 128 µg/mL. The MIC (Bifidobacterium longum) was 0.01 µg/mL (≈ 0.00945 µM), the MIC [9] was 4 µg/mL (≈ 3.78 µM) and the MIC (Lactobacillus gasseri) was 2 µg/mL (≈ 1.89 µM). For the same compound, the MIC [10] was greater than 32 µg/mL, the MIC (Fusobacterium nucleatum) was less than 0.06 µg/mL and the MIC (Pseudomonas aeruginosa) was greater than 128 µg/mL. The MIC (Enterococcus faecalis) was greater than 16 µg/mL, the MIC (Bacteroides fragilis) was greater than 32 µg/mL and the MIC (Veillonella) was 8 µg/mL (≈ 7.56 µM). For the same compound, the MIC (Clostridioides difficile [11]) was greater than 8 µg/mL, the MIC (Acinetobacter baumannii) was greater than 128 µg/mL and the MIC (Clostridioides difficile [12]) was 0.125 µg/mL (≈ 0.118 µM). It also gave an MIC (Clostridioides difficile [13]) of 4 µg/mL (≈ 3.78 µM) and an MIC (Staphylococcus aureus [14]) of 16 µg/mL (≈ 15.1 µM).
Work on `Oc1ccc(-c2nc(-c3ccc(N4CCOCC4)cc3)no2)cc1` yielded an inhibition at 45 µM (Clostridioides difficile [1]) of less than 10%.
For `CCCOc1ccc(-c2noc(-c3ccc(CN)cc3)n2)cc1`, the inhibition at 45 µM (Clostridioides difficile [1]) was 12%.
`Oc1ccc(-c2nc(-c3ccc(Oc4cccc(I)c4)cc3)no2)cc1` gave an inhibition at 45 µM (Clostridioides difficile [1]) of 37%.
For `NCc1ccc(-c2nc(-c3ccc(OC(F)F)cc3)no2)cc1`, the inhibition at 45 µM (Clostridioides difficile [1]) was less than 10%.
`c1cc2cc(-c3nc(-c4ccc(OC5CCCC5)cc4)no3)ccc2[nH]1` was tested, and the inhibition at 45 µM (Clostridioides difficile [1]) was less than 10%.
`CCCCOc1ccc(-c2noc(-c3ccc(CN)cc3)n2)cc1` showed an inhibition at 45 µM (Clostridioides difficile [1]) of 32%.
`Oc1ccc(-c2nc(-c3ccc4oc5ccccc5c4c3)no2)cc1` was tested, and the inhibition at 45 µM (Clostridioides difficile [1]) was less than 10%.
Work on `COc1ccc(-c2noc(-c3ccc(CN)cc3)n2)cc1` yielded an inhibition at 45 µM (Clostridioides difficile [1]) of less than 10%.
`Oc1ccc(-c2nc(-c3ccc(Oc4ccc(I)cc4)cc3)no2)cc1` gave an inhibition at 45 µM (Clostridioides difficile [1]) of 39%.
In the case of `NCc1ccc(-c2nc(-c3ccnc(-c4ccc(C(F)(F)F)cc4)c3)no2)cc1`, the inhibition at 45 µM (Clostridioides difficile [1]) is reported as 71%.
Compound `Oc1ccc(-c2nc(-c3ccc(OC4CCC4)cc3)no2)cc1` has an inhibition at 45 µM (Clostridioides difficile [1]) of less than 10%.
With `Clc1c[nH]nc1-c1nc(-c2ccc(OC3CCCC3)cc2)no1` the inhibition at 45 µM (Clostridioides difficile [1]) was less than 10%.
`Oc1ccc(-c2nc(-c3ccc(C(O)C(F)(F)F)cc3)no2)cc1` (stereo not given) showed an inhibition at 45 µM (Clostridioides difficile [1]) of less than 10%.
With `FC(F)(F)c1ccc(Oc2ccc(-c3noc(-c4n[nH]cc4NC4CCCC4)n3)cc2)cc1` the inhibition at 45 µM (Clostridioides difficile [1]) was less than 10%.
`CS(=O)(=O)Nc1ccc(Cc2noc(-c3ccc4[nH]cc(CCN)c4c3)n2)cc1` [L-694247] showed an inhibition at 45 µM (Clostridioides difficile [1]) of less than 10%.
Compound `O=C(Nc1c[nH]nc1-c1nc(-c2ccc(Oc3ccc(C(F)(F)F)cc3)cc2)no1)c1ccccn1` has an inhibition at 45 µM (Clostridioides difficile [1]) of less than 10%.
`NCCCCc1nc(-c2ccc(OC3CCCC3)cc2)no1` was tested, and the inhibition at 45 µM (Clostridioides difficile [1]) was less than 10%.
Compound `FC(F)(F)c1ccc(Oc2ccc(-c3noc(-c4cn[nH]n4)n3)cc2)cc1` has an inhibition at 45 µM (Clostridioides difficile [1]) of less than 10%.
`NCc1ccc(-c2nc(-c3ccc(OC(F)(F)F)cc3)no2)cc1` was tested, and the inhibition at 45 µM (Clostridioides difficile [1]) was 33%.
With `CCCCNc1c[nH]nc1-c1nc(-c2ccc(Oc3ccc(C(F)(F)F)cc3)cc2)no1` the inhibition at 45 µM (Clostridioides difficile [1]) was less than 10%.
